Measurements taken from patent EP4772161A1, “SKIN COSMETIC COMPOSITION CONTAINING BOTRYOCOCCENE AS ACTIVE INGREDIENT” (Phycochemy Corporation, priority 2023, dated 2025).

Columns and labels:
Assay type in all cases: cell-based, human
PGE2 = PGE2 production in culture supernatant of NHEK cells, with or without UVB irradiation (ELISA, per unit protein)
Procedure: (§1) Normal human epidermal keratinocytes (NHEKs) were cultured in HuMedia-KG2 (KG2) medium containing 10% fetal bovine serum, 1% antibiotic and 1% human epidermal keratinocyte growth supplement, in a 37°C, 5% CO2 incubator.
(§2) NHEK cells were seeded on a 96-well plate at a density of 2.5 × 10^4 cells/well in KG2 medium, and incubated for 24 hours. The supernatant was aspirated, the medium was exchanged with KB2 medium containing 0, 25, 50, 100 and 200 µM botryococcene, and culturing was continued for 24 hours, after which the cells were washed with PBS and the medium was exchanged with HBSS. The cells were then irradiated with UVB (280 to 320 nm, 20 mJ/cm^2) and cultured for 24 hours in fresh KB2 medium. The IL-1α and PGE2 expression levels in the culture supernatants were measured using an ELISA measuring kit. The cells were then dissolved in 50 µL of PBS containing 0.5% Triton^R X-100, the protein level was quantified, and the IL-1α and PGE2 production levels per unit protein were calculated.

intracellular ROS = test: Intracellular reactive oxygen species removal (DCFH-DA fluorescence per unit protein); settings: NHEK cells, botryococcene 25-200 µM for 24 hours
Procedure: as §1
NHEK cells were seeded on a 96-well plate at a density of 2.5 × 10^4 cells/well in KG2 medium, and incubated for 24 hours. The supernatant was removed, the medium was exchanged with KB2 medium containing 0, 25, 50, 100 and 200 µM botryococcene, and incubation was carried out for 24 hours. After culturing, the cells were washed with PBS, the medium was exchanged with HBSS buffer containing 200 µM H2O2, and culturing was continued for 1 hour. The supernatant was removed and culturing was carried out for 30 minutes in HBSS buffer containing 20 µM DCFH-DA. The fluorescence intensity was measured with a microplate reader ([…]). The cells were then dissolved in 50 µL of PBS containing 0.5% Triton^R X-100, the protein level was quantified, and the fluorescence intensity per unit protein was normalized.

MMP-1 = MMP-1 production by NHDF cells treated with supernatant (K-CM) of UVB-irradiated NHEK cells (ELISA, per unit protein)
Procedure: as §1
(§3) Normal human skin fibroblasts (NHDFs) were cultured in DMEM with addition of 10% fetal bovine serum, 1% antibiotic and 1% human epidermal keratinocyte growth supplement, in a 37°C, 5% CO2 incubator.
(§4) NHEK cells were seeded on a 96-well plate at a density of 2.5 × 10^4 cells/well in KG2 medium, and incubated for 24 hours. The supernatant was aspirated, the medium was exchanged with KB2 medium containing 0, 25, 50, 100 and 200 µM botryococcene, and culturing was continued for 24 hours, after which the cells were washed with PBS and the medium was replaced with HBSS. The cells were then irradiated with UVB (280 to 320 nm, 20 mJ/cm^2) and cultured for 24 hours in fresh KB2 medium. After culturing, the supernatant (K-CM) was collected. NHDF cells were seeded on a 96-well plate at a density of 2.0 × 10^4 cells/well in DMEM medium, and incubated for 24 hours. […] The cells were then dissolved in 50 µL of PBS containing 0.5% Triton^R X-100, and the protein level was quantified with a BCA Protein Assay Kit (product of Thermo Fisher Scientific), calculating the type I collagen and MMP-1 production per unit protein.

type I collagen = test: Type I collagen production by NHDF cells treated with supernatant (K-CM) of UVB-irradiated NHEK cells (ELISA, per unit protein)
Procedure: as §1, §3, §4

NHEK cells [1] = test: Cytotoxicity with botryococcene treatment (Neutral Red uptake); settings: 24 hours
Procedure: as §1
NHEK cells were seeded on a 96-well plate at a density of 2.5 × 10^4 cells/well in KG2 medium, and incubated for 24 hours. The supernatant was aspirated, the medium was exchanged with HuMedia-KB2 (KB2) medium containing 0, 12.5, 25, 50, 100, 200 and 400 µM botryococcene, and the mixture was incubated for 24 hours. After culturing, the cells were washed with PBS, the medium was exchanged with KB2 medium containing 0.003% Neutral Red, and culturing was carried out for 2 hours. The Neutral Red in the cells was extracted with 1 M HCl in 30% MeOH. The absorbance at 550 nm was measured with a microplate reader.

IL-1α = IL-1α production in culture supernatant of NHEK cells, with or without UVB irradiation (ELISA, per unit protein)
Procedure: as §1, §2

NHEK cells [2] = test: Protection against cytotoxicity induced by H2O2 (Neutral Red uptake); settings: botryococcene 25-200 µM for 24 hours, then 300 µM H2O2 for 1 hour
Procedure: as §1
NHEK cells were seeded on a 96-well plate at a density of 2.5 × 10^4 cells/well in KG2 medium, and incubated for 24 hours. The supernatant was aspirated, the medium was exchanged with KB2 medium containing 0, 25, 50, 100 and 200 µM botryococcene, and incubation was carried out for 24 hours. After culturing, the cells were washed for 1 hour with HBSS containing PBS and 300 µM H2O2, and the cells were then incubated for 24 hours in KB2 medium. After incubation, the cells were washed with PBS, the medium was exchanged with KB2 medium containing 0.003% Neutral Red, and culturing was carried out for 2 hours. After culturing, the cells were washed with PBS. The Neutral Red in the cells was extracted with 1 M HCl in 30% MeOH. The absorbance at 550 nm was measured with a microplate reader.

NHEK cells [3] = test: Fluorescent bead (FluoSpheres) phagocytosis induced by UVB irradiation; settings: UVB 20 mJ/cm^2
Procedure: as §1
NHEK cells were seeded on a 96-well plate at a density of 2.5 × 10^4 cells/well in KG2 medium, and incubated for 24 hours. The supernatant was aspirated, the medium was exchanged with KB2 medium containing 0, 25, 50, 100 and 200 µM botryococcene, and culturing was continued for 24 hours, after which the cells were washed with PBS and the medium was replaced with HBSS. The cells were then irradiated with UVB (280 to 320 nm, 20 mJ/cm^2) and cultured for 24 hours in fresh KB2 medium. After replacing the medium with of KB2 medium containing FluoSpheres™ and allowing the cells to stand for 4 hours, they were dissolved with 50 µL of PBS containing 0.5% Triton^R X-100 and the fluorescence of the cell lysate was measured with a microplate reader. The fluorescence of the cell lysate was detected with a fluorescence reader at an excitation/luminous wavelength of 535 nm/590 nm. The cells were then dissolved in 50 µL of PBS containing 0.5% Triton^R X-100, the protein level was quantified, and the fluorescence intensity per unit protein was normalized.

[4] = botryococcene 200 µM, UVB 20 mJ/cm^2
[5] = botryococcene 25 to 100 µM, UVB 20 mJ/cm^2
[6] = NHDF cells with K-CM of UVB-irradiated NHEK cells pretreated with botryococcene 200 µM
[7] = NHDF cells with K-CM of UVB-irradiated NHEK cells pretreated with botryococcene 25 to 100 µM

**Q.** Which “Induction of PGE2 production” value (PGE2; [4]) does the source give for C=C[C@@](C)(/C=C/[C@H](C)CC[C@H](C)C(=C)CC[C@H](C)C(=C)C)CC[C@H](C)C(=C)CC[C@H](C)C(=C)C [botryococcene] here?
**A.** Its value is “not inhibited”.

**Q.** And the “PGE2 production induced by UVB irradiation” value (PGE2; [5])?
**A.** The value was “inhibited all of the IL-1α and PGE2 production induced by UVB irradiation in a concentration-dependent manner up to 100 µM”.

**Q.** And the “amount of PGE2 produced” value (PGE2; non-UVB-irradiated conditions, botryococcene up to 50 µM)?
**A.** The value was “reduced by botryococcene in a concentration-dependent manner”.

**Q.** What about the “intracellular ROS concentration” value (intracellular ROS; then 200 µM H2O2 treatment for 1 hour) of the same molecule?
**A.** The value was “decrease in a concentration-dependent manner”.

**Q.** And the “intracellular ROS concentration” value (intracellular ROS; without H2O2 treatment)?
**A.** Its value is “decrease in a concentration-dependent manner”.

**Q.** And the “inhibiting effect on acceleration of MMP-1 production” value (MMP-1; [6])?
**A.** Its value is “less prominent than with 50 µM or 100 µM”.

**Q.** And the “acceleration of MMP-1 production” value (MMP-1; [7])?
**A.** The value was “inhibited the reduction in collagen production and acceleration of MMP-1 production in a concentration-dependent manner up to 100 µM”.

**Q.** And the “inhibiting effect on reduction in collagen production” value (type I collagen; [6])?
**A.** Its value is “less prominent than with 50 µM or 100 µM”.

**Q.** And the “reduction in collagen production” value (type I collagen; [7])?
**A.** Its value is “inhibited the reduction in collagen production and acceleration of MMP-1 production in a concentration-dependent manner up to 100 µM”.

**Q.** What about the cell viability (NHEK cells [1]; botryococcene 0 to 200 µM) of the same molecule?
**A.** Its cell viability is “No change in cell viability was observed”.

**Q.** And the cell viability (NHEK cells [1]; botryococcene 400 µM)?
**A.** The cell viability was “a notable reduction was observed”.

**Q.** What about the “Induction of IL-1α production” value (IL-1α; [4]) of the same molecule?
**A.** The value was “not inhibited”.

**Q.** And the “IL-1α production induced by UVB irradiation” value (IL-1α; [5])?
**A.** Its value is “inhibited all of the IL-1α and PGE2 production induced by UVB irradiation in a concentration-dependent manner up to 100 µM”.

**Q.** What about the “amount of IL-1α produced” value (IL-1α; non-UVB-irradiated conditions, botryococcene up to 100 µM) of the same molecule?
**A.** Its value is “reduced by botryococcene in a concentration-dependent manner up to 100 µM for IL-1α”.

**Q.** What about the “reduction in cell viability by H2O2 treatment” value (NHEK cells [2]) of the same molecule?
**A.** The value was “restored by addition of botryococcene, in a concentration-dependent manner”.

**Q.** What about the “effect of inhibiting fluorescent bead phagocytosis” value (NHEK cells [3]; botryococcene 200 µM) of the same molecule?
**A.** Its value is “less prominent than with 50 µM or 100 µM”.

**Q.** What about the “fluorescent bead phagocytosis by UVB irradiation” value (NHEK cells [3]; botryococcene 25 to 100 µM) of the same molecule?
**A.** The value was “inhibited fluorescent bead phagocytosis by UVB irradiation in a concentration-dependent manner up to 100 µM”.
